Data: patent US10004732B2 (Novartis AG, priority 2014, dated 2018)
Where a name gives a salt, the structure may show the parent alone. Read-outs that look alike come from different tables or passages of the source.

Assays:
[1] = molecular target: T1, PI 3-kinase alpha (Homo sapiens, UniProt P42336); assay: Cellular assay H1, p-Akt (S473) in Rat-1 cells, Surefire format; type: cell-based; conditions: non-asterisked data: version H1 (Surefire format), Rat-1 cells; read-out: Assay H PI3Kα IC50
Target sequence in this assay (P42336 whole entry): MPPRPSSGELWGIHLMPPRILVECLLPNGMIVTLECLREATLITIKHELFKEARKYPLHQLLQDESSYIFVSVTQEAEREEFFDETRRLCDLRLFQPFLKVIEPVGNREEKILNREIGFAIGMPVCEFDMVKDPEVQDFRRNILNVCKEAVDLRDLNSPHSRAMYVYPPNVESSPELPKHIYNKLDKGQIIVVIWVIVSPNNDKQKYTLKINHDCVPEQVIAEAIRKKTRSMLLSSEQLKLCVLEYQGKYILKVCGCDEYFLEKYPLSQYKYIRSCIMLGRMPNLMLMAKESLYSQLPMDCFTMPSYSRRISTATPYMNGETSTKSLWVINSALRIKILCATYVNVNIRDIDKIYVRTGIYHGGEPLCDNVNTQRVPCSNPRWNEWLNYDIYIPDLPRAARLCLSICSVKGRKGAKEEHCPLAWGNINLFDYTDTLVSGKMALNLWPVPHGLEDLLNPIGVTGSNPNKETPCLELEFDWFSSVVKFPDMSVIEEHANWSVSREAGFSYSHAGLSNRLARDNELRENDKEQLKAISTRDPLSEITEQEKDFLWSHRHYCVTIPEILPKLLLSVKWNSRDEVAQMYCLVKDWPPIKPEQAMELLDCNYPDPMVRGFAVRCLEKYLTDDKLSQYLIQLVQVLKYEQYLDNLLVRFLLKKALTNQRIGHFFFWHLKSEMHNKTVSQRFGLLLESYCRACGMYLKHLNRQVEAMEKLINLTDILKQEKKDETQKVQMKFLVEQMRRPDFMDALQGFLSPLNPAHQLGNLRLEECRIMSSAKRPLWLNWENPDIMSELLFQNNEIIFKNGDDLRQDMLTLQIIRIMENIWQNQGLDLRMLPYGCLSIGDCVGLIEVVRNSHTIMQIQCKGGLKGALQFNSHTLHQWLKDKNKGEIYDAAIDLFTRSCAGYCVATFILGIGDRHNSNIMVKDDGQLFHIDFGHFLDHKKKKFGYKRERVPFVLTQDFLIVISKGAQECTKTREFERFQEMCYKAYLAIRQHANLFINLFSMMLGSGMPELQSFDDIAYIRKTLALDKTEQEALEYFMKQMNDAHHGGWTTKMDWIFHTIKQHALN
Target sequence in this assay (Q63787 whole entry partner): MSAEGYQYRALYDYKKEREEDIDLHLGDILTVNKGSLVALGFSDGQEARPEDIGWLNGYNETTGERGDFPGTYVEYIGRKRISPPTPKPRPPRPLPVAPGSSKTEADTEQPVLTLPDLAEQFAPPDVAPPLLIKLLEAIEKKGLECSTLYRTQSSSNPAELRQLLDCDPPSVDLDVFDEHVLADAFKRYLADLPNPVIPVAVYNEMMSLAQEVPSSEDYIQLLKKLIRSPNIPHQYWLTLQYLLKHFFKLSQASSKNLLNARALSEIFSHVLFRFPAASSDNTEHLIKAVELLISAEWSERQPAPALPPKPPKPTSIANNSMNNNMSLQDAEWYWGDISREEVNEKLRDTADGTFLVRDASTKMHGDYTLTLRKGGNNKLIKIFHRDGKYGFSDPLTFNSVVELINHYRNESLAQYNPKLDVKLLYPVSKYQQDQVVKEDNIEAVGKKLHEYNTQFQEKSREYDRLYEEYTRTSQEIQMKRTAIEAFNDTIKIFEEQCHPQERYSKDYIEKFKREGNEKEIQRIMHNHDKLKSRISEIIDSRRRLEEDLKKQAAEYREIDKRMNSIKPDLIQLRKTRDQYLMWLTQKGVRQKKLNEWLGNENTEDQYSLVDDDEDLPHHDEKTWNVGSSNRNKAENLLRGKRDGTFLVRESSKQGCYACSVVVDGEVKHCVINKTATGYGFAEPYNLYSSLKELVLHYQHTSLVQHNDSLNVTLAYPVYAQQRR

[2] = molecular target: T2, PI 3-kinase delta (Homo sapiens, UniProt O00329); assay: Cellular assay J1, p-Akt (S473) in Rat-1 cells, Surefire format; type: cell-based; conditions: non-asterisked data: version J1 (Surefire format), Rat-1 cells; read-out: Assay J PI3Kδ IC50
Target sequence in this assay (O00329 whole entry): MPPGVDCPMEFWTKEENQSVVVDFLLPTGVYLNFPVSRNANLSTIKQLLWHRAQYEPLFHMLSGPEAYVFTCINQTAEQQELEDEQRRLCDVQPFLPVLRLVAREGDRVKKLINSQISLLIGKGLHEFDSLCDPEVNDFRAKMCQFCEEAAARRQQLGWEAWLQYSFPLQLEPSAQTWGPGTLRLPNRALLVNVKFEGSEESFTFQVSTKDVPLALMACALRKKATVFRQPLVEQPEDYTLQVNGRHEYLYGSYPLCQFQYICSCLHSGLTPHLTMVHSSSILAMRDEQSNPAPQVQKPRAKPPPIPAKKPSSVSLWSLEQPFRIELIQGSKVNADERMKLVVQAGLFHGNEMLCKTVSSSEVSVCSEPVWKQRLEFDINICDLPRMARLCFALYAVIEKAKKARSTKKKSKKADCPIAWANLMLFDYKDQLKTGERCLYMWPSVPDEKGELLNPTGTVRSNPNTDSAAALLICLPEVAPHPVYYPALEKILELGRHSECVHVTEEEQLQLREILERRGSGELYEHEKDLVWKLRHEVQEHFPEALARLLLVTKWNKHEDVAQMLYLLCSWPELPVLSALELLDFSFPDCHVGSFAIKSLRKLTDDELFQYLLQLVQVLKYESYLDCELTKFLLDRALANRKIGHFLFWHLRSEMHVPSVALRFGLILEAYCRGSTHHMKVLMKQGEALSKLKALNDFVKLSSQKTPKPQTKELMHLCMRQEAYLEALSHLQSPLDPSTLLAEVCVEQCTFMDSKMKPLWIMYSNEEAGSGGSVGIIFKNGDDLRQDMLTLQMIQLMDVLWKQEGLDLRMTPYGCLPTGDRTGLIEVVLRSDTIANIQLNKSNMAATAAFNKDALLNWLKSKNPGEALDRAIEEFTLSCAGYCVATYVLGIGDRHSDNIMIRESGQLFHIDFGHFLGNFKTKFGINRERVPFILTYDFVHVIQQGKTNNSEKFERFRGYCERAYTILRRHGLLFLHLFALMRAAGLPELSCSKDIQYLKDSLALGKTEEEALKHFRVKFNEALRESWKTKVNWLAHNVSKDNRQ
Target sequence in this assay (Q63787 whole entry partner): as the sequence (Q63787 whole entry partner) above

[3] = molecular target: mTOR (Homo sapiens, UniProt P42345); assay: Lanthascreen kinase binding assay, assay G; conditions: read-out: Assay G mTOR IC50
Method: Lanthascreen™ Kinase Binding Assay for mTOR (G)
Binding of an inhibitor to the kinase competes for binding with the tracer, resulting in a loss of FRET.
50 nL of compound dilutions were dispensed onto white 384-well small volume polystyrene plate.

[4] = molecular target: Vps34 (Homo sapiens, UniProt Q8NEB9); assay: Kinase Glo Luminescent Kinase Assay (Kglo), assay C; type: biochemical; conditions: read-out: Assay C VPS34 IC50
[5] = molecular target: T3, PI 3-kinase beta (Homo sapiens, UniProt P42338); assay: Kinase Glo Luminescent Kinase Assay (Kglo), assay B; type: biochemical; conditions: read-out: Assay B PI3Kβ IC50
Method: Kinase Glo Luminescent Kinase Assay (Kglo) for Pb 3-Kinase Alpha (A), Pb 3-Kinase Beta (B), Vps34 (C), Pb 4-Kinase Beta (D)
The Kinase Glo Luminescent Kinase Assay (Promega, Madison/Wis., USA) is a homogeneous HTS method of measuring kinase activity by quantifying the amount of ATP remaining in solution following a kinase reaction.
L-α-phosphatidylinositol (PI), provided as 10 mg/ml solution in methanol, was transferred into a glass tube and dried under a nitrogen beam. It was then resuspended in 3% OctylGlucoside (1-0-n-octyl-beta-D-glucopyranoside) by vortexing and stored at 4° C. 5 μL of a mix of PI/OctylGlucoside with the PI 3-kinase alpha and PI 3-kinase beta subtypes, or Vps34 or PI 4-kinase beta were added. Kinase reactions were started by the addition of 5 μl of an ATP-mix containing in a final volume 10 μL 10 mM TRIS-HCl pH 7.5, 3 mM MgCl2, 50 mM NaCl, 0.05% CHAPS, 1 mM DTT and 1 μM ATP at room temperature.
All fits were performed with the program XLfit4 (ID Business Solutions, Guildford, UK).

[6] = molecular target: T3, PI 3-kinase beta; assay: Cellular assay I1, p-Akt (S473) in Rat-1 cells, Surefire format; type: cell-based; conditions: non-asterisked data: version I1 (Surefire format), Rat-1 cells; read-out: Assay I PI3Kβ IC50
From the text: Cellular Assays for PI 3-Kinase Alpha (H1), Beta (I1) and Delta (J1): Surefire Format
AlphaScreen (Amplified Luminescent Proximity Homogeneous Assay, ALPHA, Perkin Elmer) is a non-radioactive bead-based proximity assay technology to study biomolecular interactions in a homogenous microtiter plate format. The brand name SureFire denotes AlphaScreen assays that are adapted to quantify the phosphorylation of endogenous cellular proteins in cell lysates, by using matched antibody pairs, which consist of an anti-phospho-kinase and an anti-kinase antibody. The assay allows characterization of kinase signaling in cells as well as measurement of kinase inhibitor effects.
Using Rat-1 cells stably expressing myr-HA-tagged versions of the human PI3Kdelta, PI3Kalpha, or PI3Kbeta p110 catalytic subunit isoforms, the assay was developed as a two-plate protocol in a 384-well format.
For compound testing, the cells were seeded at a density of 4000 (Rat-1_PI3Kdelta), 7500 (Rat-1_PI3Kalpha), or 6200 (Rat-1_PI3Kbeta) cells in 20 μl complete growth medium into cell culture treated 384-well plates and were grown at 37° C./5% CO2/90% humidity for 24 h. Shortly before compound transfer, the complete medium was removed, 30 μl assay buffer (DMEM high glucose, 1×MEM NEAA, 10 mM HEPES, 2 mM L-glutamine, 0.1% (w/v) BSA) was added and 10 μl of the compound predilutions were transferred to the cells.

[7] = molecular target: T1, PI 3-kinase alpha; assay: Kinase Glo Luminescent Kinase Assay (Kglo), assay A; type: biochemical; conditions: read-out: Assay A PI3Kα IC50
Target sequence in this assay (P42336 whole entry): as the sequence (P42336 whole entry) above

[8] = molecular target: T4, PI 3-kinase gamma (Homo sapiens, UniProt P48736); assay: Cellular U937 AKT assay K1 (MSD); type: cell-based; conditions: U937 cells, K1 format; read-out: Assay K1 PI3Kγ IC50
[9] = molecular target: T2, PI 3-kinase delta; assay: TR-FRET Adapta assay, assay F; conditions: read-out: Assay F PI3Kδ IC50
Target sequence in this assay (O00329 whole entry): as the sequence (O00329 whole entry) above
Target sequence in this assay (P27986 461-568 partner): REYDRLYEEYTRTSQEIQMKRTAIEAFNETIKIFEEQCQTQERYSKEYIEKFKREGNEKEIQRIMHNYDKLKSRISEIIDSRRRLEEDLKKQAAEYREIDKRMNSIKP

[10] = tested on: IL-8-induced neutrophil shape change in human whole blood; assay: Whole blood neutrophil shape change assay (L); type: cell-based; conditions: IL-8, human whole blood, read-out: Assay L WBSC IC50
[11] = molecular target: T4, PI 3-kinase gamma; assay: TR-FRET Adapta assay, assay E; type: biochemical; conditions: read-out: Assay E PI3Kγ IC50
[12] = molecular target: PI 4-kinase beta (Homo sapiens, UniProt Q9UBF8); assay: Kinase Glo Luminescent Kinase Assay (Kglo), assay D; type: biochemical; conditions: read-out: Assay D PI4Kβ IC50
[13] = Microsomal clearance assay (M); conditions: intrinsic clearance in rat liver microsomes
Method: The experiments were performed in 96-well glass plates at 37° C. on an automated Tecan EVO platform. Test compounds at a concentration of 10 mM in pure DMSO were diluted 1:1000 in water to 10 μM. […] Reactions were initiated by the addition of 150 μL of a cofactor solution containing 2 mM NADPH.

Sequence of Vps34 (Q8NEB9 whole entry, species assumed): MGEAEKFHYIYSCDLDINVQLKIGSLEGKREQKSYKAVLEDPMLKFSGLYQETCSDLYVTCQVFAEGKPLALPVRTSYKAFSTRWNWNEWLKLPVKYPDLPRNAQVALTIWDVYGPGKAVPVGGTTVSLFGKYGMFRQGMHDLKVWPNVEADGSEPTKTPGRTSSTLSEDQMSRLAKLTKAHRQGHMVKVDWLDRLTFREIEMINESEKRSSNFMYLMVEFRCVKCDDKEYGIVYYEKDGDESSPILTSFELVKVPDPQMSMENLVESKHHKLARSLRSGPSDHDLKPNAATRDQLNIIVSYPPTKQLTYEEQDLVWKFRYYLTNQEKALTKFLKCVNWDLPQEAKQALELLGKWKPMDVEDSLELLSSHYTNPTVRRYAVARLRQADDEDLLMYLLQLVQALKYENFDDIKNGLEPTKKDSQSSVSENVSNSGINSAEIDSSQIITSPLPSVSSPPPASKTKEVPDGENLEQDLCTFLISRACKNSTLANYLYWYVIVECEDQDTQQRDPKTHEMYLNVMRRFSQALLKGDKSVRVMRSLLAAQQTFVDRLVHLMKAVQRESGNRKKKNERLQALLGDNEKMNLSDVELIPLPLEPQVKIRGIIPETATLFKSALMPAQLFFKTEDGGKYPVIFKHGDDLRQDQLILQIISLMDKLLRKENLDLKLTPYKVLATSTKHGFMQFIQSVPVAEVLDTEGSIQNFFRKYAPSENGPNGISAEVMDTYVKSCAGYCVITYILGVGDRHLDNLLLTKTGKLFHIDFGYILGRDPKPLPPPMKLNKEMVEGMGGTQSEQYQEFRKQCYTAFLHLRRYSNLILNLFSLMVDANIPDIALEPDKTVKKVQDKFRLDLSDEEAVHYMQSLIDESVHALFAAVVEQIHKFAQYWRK
Sequence of PI 4-kinase beta (Q9UBF8 whole entry): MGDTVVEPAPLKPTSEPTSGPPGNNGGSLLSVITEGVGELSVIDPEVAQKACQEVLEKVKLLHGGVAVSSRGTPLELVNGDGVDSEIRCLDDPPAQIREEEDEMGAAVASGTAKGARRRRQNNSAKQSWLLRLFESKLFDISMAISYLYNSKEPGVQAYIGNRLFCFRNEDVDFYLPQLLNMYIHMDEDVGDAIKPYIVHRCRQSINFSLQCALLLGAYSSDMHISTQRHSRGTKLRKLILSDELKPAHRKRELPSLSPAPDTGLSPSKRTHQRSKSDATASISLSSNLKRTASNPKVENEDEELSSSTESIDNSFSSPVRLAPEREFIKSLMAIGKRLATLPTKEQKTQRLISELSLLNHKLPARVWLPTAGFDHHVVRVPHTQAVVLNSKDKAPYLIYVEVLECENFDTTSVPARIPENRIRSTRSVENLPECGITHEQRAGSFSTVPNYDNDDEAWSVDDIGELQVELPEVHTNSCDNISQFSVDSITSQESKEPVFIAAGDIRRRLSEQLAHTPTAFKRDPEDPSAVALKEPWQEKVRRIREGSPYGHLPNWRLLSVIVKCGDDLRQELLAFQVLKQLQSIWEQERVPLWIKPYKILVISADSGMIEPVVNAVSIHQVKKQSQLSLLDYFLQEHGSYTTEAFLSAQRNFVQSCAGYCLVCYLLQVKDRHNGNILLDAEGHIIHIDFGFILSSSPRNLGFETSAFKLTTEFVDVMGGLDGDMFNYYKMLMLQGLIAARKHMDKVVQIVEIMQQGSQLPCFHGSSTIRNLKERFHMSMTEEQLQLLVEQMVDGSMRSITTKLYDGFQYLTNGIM

IC50 [1] [nM]	IC50 [2] [nM]	IC50 [3] [nM]	IC50 [4] [nM]	IC50 [5] [nM]	IC50 [6] [nM]	IC50 [7] [nM]	IC50 [8] [nM]	IC50 [9] [nM]	IC50 ([10]; Homo sapiens, Neutrophil) [nM]	IC50 [11] [nM]	IC50 [12] [nM]	Assay M RLM CI(int) [13] [µL/min/mg]	Structure (SMILES)	IC50 [10] [nM]
1280	1200	8740	> 9100	5780	4100	400	65	290	2090	31	4050		CCCn1cc(-c2nc(-c3cc(S(=O)(=O)NCCC(C)(C)O)ccc3C)cnc2N)cn1 [Example 119.25]	
3010	1010	6450	> 9100	> 9100	6460	390	106	90	447	10	> 9100		Cc1ccc(S(=O)(=O)N[C@H]2CC[C@H](O)CC2)cc1-c1cnc(N)c(-c2nc(C(C)C)no2)n1 [Example 23, 3-[5-Amino-6-(3-isopropyl-[1,2,4]oxadiazol-5-yl)-pyrazin-2-yl]-N-(4-hydroxy-cyclohexyl)-4-methyl-benzene sulfonamide]	
8580	2460	> 9100	3100	2930		490	73	100	385	19	5850	14	Cc1ccc(S(=O)(=O)N[C@H]2CC[C@H](O)CC2)cc1-c1cnc(N)c(-c2cnn(C)c2)n1 [Example 58, Trans-3-(5-Amino-6-(1-methyl-1H-pyrazol-4-yl)pyrazin-2-yl)-N-(-4-hydroxycyclohexyl)-4-methylbenzenesulfonamide]	
990	1120	> 9100	> 9100	> 9100	> 10000	440	124	130	1300	12	> 9100		CCc1noc(-c2nc(-c3cc(S(=O)(=O)NCCC(C)(C)O)ccc3C)cnc2N)n1 [Example 136, 3-(5-Amino-6-(3-ethyl-1,2,4-oxadiazol-5-yl)pyrazin-2-yl)-N-(3-hydroxy-3-methylbutyl)-4-methylbenzenesulfonamide]	
2970	3250	6500	> 9100	3930		330	163	420	626	68	7850	44	Cc1cn(-c2nc(-c3cc(S(=O)(=O)NCCC(C)(C)O)ccc3C)cnc2N)cn1 [Example 63, 3-(5-Amino-6-(4-methyl-1H-imidazol-1-yl)pyrazin-2-yl)-N-(3-hydroxy-3-methylbutyl)-4-methylbenzenesulfonamide]	
4700	3410	> 9100	> 9100	2650	> 10000	140	117	240	200	41	> 9100		Cc1ccc(S(=O)(=O)NCCC(C)(C)O)cc1-c1cnc(N)c(-c2cn(C)nc2C)n1 [Example 12, 3-(5-Amino-6-(1,3-dimethyl-1H-pyrazol-4-yl)pyrazin-2-yl)-N-(3-hydroxy-3-methylbutyl)-4-methyl benzenesulfonamide]	
> 10000	7800	4510	7490	2480		470	91	240	830	56	7970	13	Cc1ccc(S(=O)(=O)N[C@H]2CC[C@@H](O)CC2)cc1-c1cnc(N)c(-c2cnn(C)c2)n1 [Example 75, 3-(5-Amino-6-(1-methyl-1H-pyrazol-4-yl)pyrazin-2-yl)-N-((1s,4s)-4-hydroxycyclohexyl)-4-methylbenzenesulfonamide]	
1040	1170	> 9100	> 9100	5880	8330	600	394	140	1110	46	> 9100		Cc1noc(-c2nc(-c3cc(S(=O)(=O)NCCC(C)(C)O)ccc3C)cnc2N)n1 [Example 3, 3-[5-Amino-6-(3-methyl-[1,2,4]oxadiazol-5-yl)-pyrazin-2-yl]-N-(3-hydroxy-3-methyl-butyl)-4-methyl-benzenesulfonamide]	
1280	350	> 9100	> 9100	> 9100	6050	180	74	50	449	17	2260		Cc1ccc(S(=O)(=O)NCCC(C)(C)O)cc1-c1cnc(N)c(-c2cnn(Cc3ccccc3)c2)n1 [Example 132, 3-(5-Amino-6-(1-benzyl-1H-pyrazol-4-yl)pyrazin-2-yl)-N-(3-hydroxy-3-methylbutyl)-4-methylbenzenesulfonamide hydrochloride]	
1440	970	> 9100	> 9100	1010		680	110	210	7910	56	3680	155	Cc1ccc(S(=O)(=O)NCCC(C)(C)O)cc1-c1cnc(N)c(-n2cccn2)n1 [Example 62, 3-(5-Amino-6-(1H-pyrazol-1-yl)pyrazin-2-yl)-N-(3-hydroxy-3-methylbutyl)-4-methylbenzenesulfonamide]	
		6500	7600	1200		280	53	370	3210	22	3900	63	Cc1ccc(S(=O)(=O)NCC(C)(C)O)cc1-c1cnc(N)c(-c2cc(C3CC3)no2)n1 [Example 79, 3-(5-Amino-6-(3-cyclopropylisoxazol-5-yl)pyrazin-2-yl)-N-(2-hydroxy-2-methylpropyl)-4-methylbenzenesulfonamide]	
		2500	> 10000	2500		700	137	2900	805	74	3800	52	Cc1ccc(S(=O)(=O)NCC(F)F)cc1-c1cnc(N)c(-n2cncn2)n1 [Example 34, 3-(5-Amino-6-[1,2,4]triazol-1-yl-pyrazin-2-yl)-N-(2,2-difluoro-ethyl)-4-methyl-benzenesulfonamide]	
1080	970	8300	> 9100	8390	7960	540	102	160	565	16	> 9100		CCc1noc(-c2nc(-c3cc(S(=O)(=O)N[C@H]4CC[C@H](O)CC4)ccc3C)cnc2N)n1 [Example 139, Trans-3-[5-Amino-6-(3-ethyl-[1,2,4]oxadiazol-5-yl)-pyrazin-2-yl]-N-(4-hydroxy-cyclohexyl)-4-methyl-benzene sulfonamide]	

Structure (SMILES)	IC50 [1] [nM]	IC50 [2] [nM]	IC50 [3] [nM]	IC50 [4] [nM]	IC50 [5] [nM]	IC50 [6] [nM]	IC50 [7] [nM]	IC50 [8] [nM]	IC50 [9] [nM]	IC50 ([10]; Homo sapiens, Neutrophil) [nM]	IC50 [11] [nM]	IC50 [12] [nM]	Assay M RLM CI(int) [13] [µL/min/mg]	IC50 [10] [nM]
Cc1ccc(S(=O)(=O)NC2CC3(CC(O)C3)C2)cc1-c1cnc(N)c(-c2cn(C)nc2C)n1 (single isomer, unassigned) [Example 9a, (R)-3-[5-Amino-6-(1,3-dimethyl-1H-pyrazol-4-yl)-pyrazin-2-yl]-N-(6-hydroxy-spiro[3.3]hept-2-yl)-4-methyl-benzenesulfonamide or (S)-3-[5-Amino-6-(1,3-dimethyl-1H-pyrazol-4-yl)-pyrazin-2-yl]-N-(6-hydroxy-spiro[3.3]hept-2-yl)-4-methyl-benzenesulfonamide]		3530	8100	> 10000	540	> 10000		40	200		15		34	327
